# Measured values as given in paper PMC2721767 (Purinergic Signalling, 2008).
# System: human washed platelets
# Assay: ADP-induced aggregation of human washed platelets
# Format: cell-based
# Conditions: SCH442416 10 μM preapplication, data not shown
smiles,measurement,setting,value
"COc1ccc(CCCn2ncc3c2nc(N)n2nc(-c4ccco4)nc32)cc1 [SCH442416, 5-Amino-7-(3-(4-methoxy)phenylpropyl)-2-(2-furyl)pyrazolo[4,3-e]-1,2,4-triazolo[1,5-c]pyrimidine]",effect of antagonist on inhibition of platelet aggregation by 1 µM 10,5 μM ADP,completely reversed the inhibitory effect
same,effect of antagonist alone on aggregation induced by 5 μM ADP,,had no effect on aggregation
